What all share (experiment): NCI anticancer screen, dose series, 48 h
Experiment [1] relates to PC-3 prostate.
Experiment [2] concerns SK-OV-3 ovarian.
Experiment [3] concerns HT29 colon.
Experiment [4] concerns CCRF-CEM leukemia.
The test system of experiment [5] is NCI/ADR-RES ovarian.
The test system of experiment [6] is NCI-H522 lung.
The subject of experiment [7] is SF-295 CNS.
Experiment [8] relates to SN12C renal.

17 compounds from PubChem BioAssay (NCI) can be followed below.

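1) Cells in 96-well plates. 2) Compound, 48 h, 5 concentrations. 3) Linear interpolation between surrounding doses. 4) Unreached endpoint = highest concentration. TGI is the concentration that stops growth completely.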

Consider `N=C1N=C(N)c2cc3c(cc21)SCCSCCCSCCS3`, for which the TGI is 34.7 µM in experiment [1]; 41.1 µM in experiment [2]; above 48.6 µM in experiment [3]; above 25.9 µM in experiment [4]; above 100 µM in experiment [5]; 11.1 µM in experiment [6]. Further, the TGI in experiment [7] is 31.1 µM; in experiment [8], 33.2 µM.

`Oc1[nH]c2ccccc2c1N=NC(=S)N1CCCCCC1`: the TGI in experiment [1] is 10.6 µM; in experiment [2] it was 4.79 µM; in experiment [3], 10.8 µM; in experiment [5], 1.42 µM; in experiment [6], 12.6 µM; in experiment [7], 3.86 µM. In experiment [8], this compound came in with a TGI of 10.6 µM.

For the compound `COC(=O)C[C@H](COCc1ccccc1)NC(=O)C[C@H](COCc1ccccc1)NC(=O)C[C@H](COCc1ccccc1)NC(=O)OC(C)(C)C`, the TGI was 41.2 µM in experiment [1]; above 100 µM in experiment [2]; above 100 µM in experiment [3]; above 100 µM in experiment [4]; above 100 µM in experiment [5]; above 100 µM in experiment [6]. Further, the TGI in experiment [7] and in experiment [8] was above 100 µM in each case.

As to `c1ccc(C(CCN2CCCC2)c2ccccn2)cc1` (stereo unspecified), the TGI in experiment [1], in experiment [2], in experiment [3], in experiment [5], in experiment [6] and in experiment [7] was above 100 µM each time. Moreover, in experiment [8], the TGI was above 100 µM.

In the case of `Cc1ccnc(NC(=S)Nc2ccccc2Cl)c1`, the TGI in experiment [1], in experiment [2], in experiment [3], in experiment [4], in experiment [5] and in experiment [6] was above 100 µM in each case. The TGI in experiment [7] and in experiment [8] was above 100 µM throughout.

Consider `Sc1nnc(-c2ccccc2Nc2ccccc2-c2nnc(S)n2-c2ccccc2)n1-c1ccccc1`, for which the TGI in experiment [1] was above 100 µM; in experiment [3] it was above 100 µM; in experiment [4], above 100 µM; in experiment [5] it was above 100 µM; in experiment [6], 81.8 µM; in experiment [7] it was above 100 µM. Further, the TGI in experiment [8] turned out to be 72.9 µM.

For the compound `c1ccc([C@H]2CN3CCSC3=N2)cc1`, the TGI in experiment [1], in experiment [2], in experiment [3], in experiment [4], in experiment [5] and in experiment [6] was above 100 µM in each case. In addition, the TGI in experiment [7] and in experiment [8] was above 100 µM throughout.

With `Cc1cc(S(=O)(=O)O)ccc1N=Nc1ccc(N=Nc2c(O)ccc3ccccc23)c(C)c1`, the TGI is above 100 µM in experiment [1]; above 100 µM in experiment [2]; above 100 µM in experiment [3]; 60.8 µM in experiment [4]; above 100 µM in experiment [5]; 68.5 µM in experiment [6]. Moreover, the TGI in experiment [7] and in experiment [8] was above 100 µM each time.

On to `CC(=O)Oc1ccc(OC(Oc2ccccc2)c2ccccc2)cc1` (stereo unspecified), for which the TGI in experiment [1] is above 100 µM; in experiment [2], above 100 µM; in experiment [3], 87 µM; in experiment [4], 72.2 µM; in experiment [5] it was 90.3 µM; in experiment [6], 96.4 µM. The TGI in experiment [7] was above 100 µM; in experiment [8], 29.2 µM.

Take `CCN(CC)C(=S)SNCCc1ccc(S(N)(=O)=O)cc1`: the TGI was 26.9 µM in experiment [1]; above 73.1 µM in experiment [2]; 27.1 µM in experiment [3]; 36.8 µM in experiment [4]; 41.6 µM in experiment [5]; 4.63 µM in experiment [6]. Moreover, the results for the TGI in experiment [7] and in experiment [8] were 47.5 µM and 27.2 µM, respectively.

For `CC(O)(c1ccccc1)c1nccc2ccccc12` (stereo unspecified), the TGI in experiment [1], in experiment [2], in experiment [3], in experiment [4], in experiment [5] and in experiment [6] was above 100 µM throughout. The TGI in experiment [7] and in experiment [8] was above 100 µM each time.

As for `FC1CCN(C2(c3cccs3)CCCCC2)CC1`, the TGI in experiment [1], in experiment [2], in experiment [3], in experiment [5], in experiment [6] and in experiment [7] was above 100 µM each time. The TGI in experiment [8] is above 100 µM.

For `Cc1nnc(N)nc1/C=C\c1cccs1`, the TGI in experiment [1] is 56.4 µM; in experiment [2] it was above 100 µM; in experiment [3], 41.4 µM; in experiment [4], 70.8 µM; in experiment [5], 76.6 µM; in experiment [6] it was 17.6 µM. Further, in experiment [7], the TGI was above 100 µM.

For the compound `CCOC(=O)/C=C(/C(=O)OCC)n1c(=O)c(C)cn(C2CC(N=[N+]=[N-])C(CO)O2)c1=O` (stereo unspecified), the TGI in experiment [1] was 32.8 µM; in experiment [2], above 100 µM; in experiment [3] it was above 100 µM; in experiment [5], above 100 µM; in experiment [6], above 100 µM; in experiment [7], above 100 µM. Moreover, in experiment [8], the TGI is above 100 µM.

For `CN(C)CCCNC(=O)c1cc(NC(=O)c2cc(NC(=O)c3cc(NC(=O)CCCn4ccc(CO)c4CO)cn3C)cn2C)cn1C`, the TGI in experiment [1] was above 100 µM; in experiment [2], above 100 µM; in experiment [4], above 100 µM; in experiment [5], above 100 µM; in experiment [6] it was 8.38 µM; in experiment [8] it was above 100 µM.

On to `O=C(NCCO)c1c(O)c2ccccc2[nH]c1=O`, for which the TGI in experiment [1], in experiment [3], in experiment [4], in experiment [5], in experiment [6] and in experiment [7] was above 100 µM in each case. Moreover, in experiment [8], the TGI was above 100 µM.

Turning to `CC(=O)OCC1OC(OCC2OC(N3C(=S)N[C@H]([C@@H](O)[C@H](O)[C@H](O)CO)[C@H]3O)C(OC(C)=O)C(OC(C)=O)C2OC(C)=O)C(OC(C)=O)C(OC(C)=O)C1OC(C)=O` (stereo partly specified), the TGI in experiment [1], in experiment [2], in experiment [3], in experiment [5], in experiment [6] and in experiment [7] was above 100 µM each time. Besides, the TGI in experiment [8] is above 100 µM.
